Test results from publication PMC5522267, “Targeting PEPT1: a novel strategy to improve the antitumor efficacy of doxorubicin in human hepatocellular carcinoma therapy” (Oncotarget, 2017).
Counter-ions that a name gives are not always drawn. Like-named read-outs stand apart in the source and are kept apart here. Marks after values point to notes of the source that are not given here.

What was measured:
[1] = test system: Bel-7402; experiment: cells; assay type: cell-based, human; conditions: Homo sapiens
Procedure: (§1) Cells in the growth log phase were seeded in 96-well plate (200 ul/well) with density 8×10^3/well for 24 hours, then the drugs were added. The concentration of Doxorubicin-tripeptide conjugate was 0.005 mg/ml, 0.01 mg/ml, 0.02 mg/ml, 0.04 mg/ml, 0.06 mg/ml in turn, while Doxorubicin followed by 0.005 mg/ml, 0.01 mg/ml, 0.02 mg/ml, 0.04 mg/ml, 0.06 mg/ml with a same dosing volume 100 μl. Each concentration group included five equal wells and was provided with a control well of medium alone as a negative control. Add 20 μl of MTT Reagent ( 5 mg/ml, Sigma) to each well, including controls and continue to be incubated at 37°C for 4 hours. Remove the supernatant, drop plus DMSO (200 μl/well) and measure the OD value in each well, including the blanks, at 490 nm by a Multi-Mode Reader (BioTek, Synergy 2, USA). To calculate the inhibitory rate and the half maximal inhibitory concentration (IC50) according to the formula: Inhibitory rate =(1-( the dosing group OD/the control group OD )) × 100%, IC50 = lg^-1 (Xm-i (ΣP-0.5)) (Xm: the logarithm of maximum concentration, I: the logarithm of maximum dose/ adjacent dose, P: the sum of each group inhibitory rate, Pm: the maximum inhibitory rate, Pn: the minimum inhibitory rate ).

[2] = test system: Caco2; experiment: cells; assay type: cell-based, human; conditions: Homo sapiens, Caco-2
Procedure: as §1

[3] = test system: HepG2; experiment: cells; assay type: cell-based, human; conditions: Homo sapiens, HepG2, given as fraction, read-out: Inhibitory effect by MTT
Procedure: as §1

[4] = test system: Bel-7402; experiment: Drug concentration in tumor cells by HPLC, Bel-7402; assay type: cell-based, human; conditions: incubated 2 hours
Procedure: When the density of HCC cells reached to 3 × 10^6/ml, they were trypsinized and centrifuge (4°C, 800rpm, 5min), then discarded the supernatant, dropping medium 3 ml and evenly mixed. Cell suspension was divided into three groups (control group, Doxorubicin-tripeptide conjugate group and Doxorubicin group). The drug concentration was 0.01 mg/ml for cultured 2 hours avoiding light. Then the cells obtained by centrifugation were proceeded by the following steps: washed 3 times with 1 ml normal saline, added 0.5 ml ultra pure water (Millipore), broken by ultrasonic wave, drooped in acetonitrile (Tianjin Concord Technology Co. Ltd, China) 0.5 ml, mixed, ultrasonic oscillation for 10 mins, centrifuge (1200 rpm, 15 min), take the supernatant, filtration with filter membrane, take 20 μl for HPLC analysis (Agilent 1100 HPLC system, USA).
Chromatographic conditions were as follows: chromatographic column: DIONEX Acclaim 120 C18 (2.1 × 250 mm, 5 μm 120A), Mobile phase: Acetonitrile-0.2%NaH2PO4 aqueous solution (35: 65), Velocity: 0.35 ml/min, column temperature: 30°C, DAD, 254 nm, sample size: 20 μl. […] According to the chromatographic condition, the retention time (tR), peak position time, chromatographic behavior, resolution (R), the minimum detectable concentration and the intracellular drug concentration of these two drugs were detected in turn.

[5] = test system: Bel-7402 HCC; conditions: for Inhibition rate: from tumor weight vs control
Source text: (§2) An animal model of HCC cells (Bel-7402, HepG2) transplanted into nude mice was established according to the method described in ref. 10.

[6] = test system: HepG2 HCC
Source text: as §2

[7] = Cardiac indexes, HepG2 HCC mice; assay type: in vivo, nude mice; conditions: low dose, after treatment
[8] = Cardiac indexes, Bel-7402 HCC mice; assay type: in vivo, nude mice; conditions: high dose, after treatment

COc1cccc2c1C(=O)c1c(O)c3c(c(O)c1C2=O)C[C@@](O)(C(=O)CO)C[C@@H]3O[C@H]1C[C@H](N)[C@H](O)[C@H](C)O1 [Doxorubicin, Doxorubicin hydrochloride]
IC50 ([1]; Bel-7402, MTT, read-out: IC50): 13.8 µg/mL | inhibition at 5 µg/mL ([1]; Bel-7402, drug 0.005 mg/ml, given as fraction, read-out: Inhibitory effect by MTT): 38.8% | inhibition at 10 µg/mL ([1]; Bel-7402, drug 0.01 mg/ml, given as fraction, read-out: Inhibitory effect by MTT): 49.1% | inhibition at 20 µg/mL ([1]; Bel-7402, drug 0.02 mg/ml, given as fraction, read-out: Inhibitory effect by MTT): 61.2% | inhibition at 40 µg/mL ([1]; Bel-7402, drug 0.04 mg/ml, given as fraction, read-out: Inhibitory effect by MTT): 70% | inhibition at 80 µg/mL ([1]; Bel-7402, drug 0.08 mg/ml, given as fraction, read-out: Inhibitory effect by MTT): 79.8% | IC50 ([2]; Caco2, MTT, read-out: IC50): 15.4 µg/mL | inhibition at 5 µg/mL ([2]; Caco2, drug 0.005 mg/ml, given as fraction, read-out: Inhibitory effect by MTT): 34.6% | inhibition at 10 µg/mL ([2]; Caco2, drug 0.01 mg/ml, given as fraction, read-out: Inhibitory effect by MTT): 50% | inhibition at 20 µg/mL ([2]; Caco2, drug 0.02 mg/ml, given as fraction, read-out: Inhibitory effect by MTT): 57.9% | inhibition at 40 µg/mL ([2]; Caco2, drug 0.04 mg/ml, given as fraction, read-out: Inhibitory effect by MTT): 62.3% | inhibition at 80 µg/mL ([2]; Caco2, drug 0.08 mg/ml, given as fraction, read-out: Inhibitory effect by MTT): 78.9% | inhibition at 5 µg/mL ([3]; drug 0.005 mg/ml): 34.6% | inhibition at 10 µg/mL ([3]; drug 0.01 mg/ml): 42.2% | inhibition at 20 µg/mL ([3]; drug 0.02 mg/ml): 57.3% | inhibition at 40 µg/mL ([3]; drug 0.04 mg/ml): 66.6% | inhibition at 80 µg/mL ([3]; drug 0.08 mg/ml): 87.9% | drug concentration in tumor cells [4]: 2420 ± 30 ng/mL | median survival time ([5]; Bel-7402, high dose group): 25.5 days | deaths during treatment ([5]; Bel-7402, high dose group, 5W): 1 death and 2 deaths and 1 death in the treatment of 2W+, 3W+ and 4W+ respectively | Tumor volume, Before treatment ([5]; Bel-7402 HCC mice, baseline): 0.38 ± 0.28 cm^2 | Tumor volume (third column, no sub-head; actual volume at end of experiment) ([5]; Bel-7402 HCC mice, high dose): 0.27 ± 0.16 cm^2 | Tumor volume, After treatment ([5]; Bel-7402 HCC mice, high dose: Doxorubicin 60 mg/m^2, conjugate 300 mg/m^2): 0.42 ± 0.33 cm^2 | Tumor weight ([5]; Bel-7402 HCC mice, high dose, end of treatment): 1.30 ± 0.41 g | Inhibition rate ([5]; Bel-7402 HCC mice, high dose): 32.35% | Inhibition rate ([5]; Bel-7402 HCC mice, high dose, listed as C): 32.35^c % | Mice weight, Before treatment ([5]; mouse, in vivo): 23.15 ± 1.60 g | median survival time ([6]; HepG2, low dose group): 26.5 days | deaths during treatment ([6]; HepG2, low dose group, 5W): 3 deaths and 1 death respectively in the treatment of 3W+ and 4W+ | Tumor volume, Before treatment ([6]; HepG2 HCC mice, baseline): 0.32 ± 0.30 cm^2 | Tumor volume (third column, no sub-head; actual volume at end of experiment) ([6]; HepG2 HCC mice, low dose): 0.50 ± 0.46 cm^2 | Tumor volume, After treatment ([6]; HepG2 HCC mice, low dose: Doxorubicin 40 mg/m^2, conjugate 200 mg/m^2): 0.64 ± 0.61 cm^2 | Tumor weight ([6]; HepG2 HCC mice, low dose, end of treatment): 1.66 ± 0.98 g | Mice weight, Before treatment ([6]; mouse, in vivo): 21.23 ± 4.97 g | AST [7]: 989.25 ± 145.74 U/L | CK [7]: 1160.50 ± 164.82 U/L | CK-Mb [7]: 797.00 ± 155.90^a U/L | GSH-PX [7]: 515.57 ± 146.57^a U | LDH [7]: 6958.50 ± 991.50 U/L | MDA [7]: 3.97 ± 0.50 nmol/mg | SOD [7]: 135.63 ± 16.22^a U/mg | AST [8]: 1400.83 ± 506.35^a U/L | CK [8]: 1357.83 ± 504.33^ac U/L | CK-Mb [8]: 823.17 ± 342.53 U/L | GSH-PX [8]: 462.36 ± 100.90^a U | LDH [8]: 5811.67 ± 3290.44 U/L | MDA [8]: 3.43 ± 0.35^a nmol/mg | SOD [8]: 151.60 ± 18.08^a U/mg
